Consider 4 molecules from publication PMC11123012, “Bioactive Alkaloids from the Mangrove-Derived Fungus Nigrospora oryzae SYSU-MS0024” (Marine Drugs, 2024).

Each structure is given as a SMILES string.

For one series, the system named is BV-2 cells. In words: LPS-induced NO production in BV-2 cells. In kind it is cell-based. The note with it: mean ± SD of five replicates. The procedure: (§1) NO determination: all compounds were examined for the effect on the release of NO by BV-2 cell lines using the method described previously. All experiments were carried out in five replicates. Microglia Viability Assay: The effects of compounds 1–11 on the viability of BV2 microglia were carried out by MTT assay. BV2 microglia were first seeded at a density of 4000 cells per well for 12 or 24 h using a 96-well plate and then treated with compounds at the concentrations of 1– 100 μmol/L for another 36 h. After that, cells were incubated with MTT (0.5 mg/mL) in a 5% CO2 incubator at 37 °C. Three hours later, the medium was removed, and DMSO (150 μL) was added into each well to dissolve formazan crystals. The […] absorbances were measured at 570 nm using an ELISA microplate reader (Biotek, Winooski, VT, USA).

The target in the next series is AChE (Homo sapiens, UniProt P22303). Put plainly: biochemical. The conditions noted are these: three replicates; read-out: AChE inhibitory activity IC50. The protocol:
All compounds were examined for inhibitory activity against AChE using an optimized colorimetric method described previously. All tests were carried out in three replicates. Donepezil hydrochloride was taken as the positive control.

The test system of another series is BV2 microglia. In words: Microglia viability assay (MTT). In kind it is cell-based. The conditions noted are these: BV-2 cells, concentration of 100.0 μmol/L. The protocol:
as §1

Series [1] in a line: DPPH free radical scavenging assay. The note with it: three replicates, read-out: antioxidant activity EC50. The procedure: An optimized colorimetric method described previously was used to evaluate the DPPH free radical scavenging activities of compounds 1–11 [37]. All tests were measured in three replicates. Vitamin C was taken as a positive control.
(DPPH is a stable violet radical that fades when it is reduced.)

The next series deals with influenza A virus H1N1. Further details: method as in PMID 34052697. The note with it: read-out: anti-influenza A virus H1N1 activity IC50; cited from earlier work.

Chain of AChE (P22303 32-614): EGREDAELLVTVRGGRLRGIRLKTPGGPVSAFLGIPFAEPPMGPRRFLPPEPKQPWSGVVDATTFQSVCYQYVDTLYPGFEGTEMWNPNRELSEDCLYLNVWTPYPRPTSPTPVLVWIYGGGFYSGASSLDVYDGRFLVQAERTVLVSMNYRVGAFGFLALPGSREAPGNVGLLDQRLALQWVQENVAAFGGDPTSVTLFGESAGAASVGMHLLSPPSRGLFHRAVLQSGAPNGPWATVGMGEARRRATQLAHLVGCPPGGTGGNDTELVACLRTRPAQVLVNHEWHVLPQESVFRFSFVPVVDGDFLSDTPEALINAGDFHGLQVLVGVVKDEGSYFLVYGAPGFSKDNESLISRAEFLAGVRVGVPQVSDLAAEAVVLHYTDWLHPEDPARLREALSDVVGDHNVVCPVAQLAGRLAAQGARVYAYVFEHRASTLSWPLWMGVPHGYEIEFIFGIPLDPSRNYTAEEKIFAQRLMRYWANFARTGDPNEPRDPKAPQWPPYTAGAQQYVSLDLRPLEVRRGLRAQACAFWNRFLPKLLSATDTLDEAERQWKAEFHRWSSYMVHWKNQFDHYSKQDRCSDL

As a reminder, the IC50 is the concentration that gives 50% inhibition. Turning to `CC(O)C12CCC(=O)N1c1ccccc1CO2` (centres unmarked) [Compound 2, Nigrosporine B], the “NO accumulation induced by LPS” value stood at 47.2 ± 0.2 ng/mL in the series on BV-2 cells (compound at 20 μmol/L), 41.7 ± 0.4 ng/mL with BV-2 cells (compound at 50 μmol/L) and 21.8 ± 0.1 ng/mL with BV-2 cells (compound at 100 μmol/L). The IC50 on AChE worked out at 104 µM. For the same molecule, the “cytotoxicity (BV-2 cell viability)” value in the series on BV2 microglia is recorded as “without cytotoxicity”.

The EC50 is the concentration giving half of the maximal effect. Regarding `CC(=O)Nc1ccccc1O` [Compound 5, N-(2-hydroxyphenyl)-acetamide], in series [1], the EC50 stood at 167 µM.

Turning to `O=C1O[C@H]([C@@H](O)CO)C(O)=C1O` [Vitamin C, reference compound], the EC50 in series [1] was determined as 146 µM.

Turning to `CC[C@@H](C)C1=C2NC(=O)[C@@](O)(C/C(=C\C=O)OC)C(=O)N2[C@H](C(C)C)C(=O)N1` [deg-pyrasplorine B], the IC50 in the series with influenza A virus H1N1 is 50 µM.
